Patent US6727272B1, “Leflunomide analogs for treating rheumatoid arthritis” (Unitech Pharmaceuticals, Inc., priority 2002, dated 2004)
Read-outs that look alike come from different tables or passages of the source.

Test system: Carrageenan-stimulated inflammation on the rear left footpad of the rat
Experiment: Carrageenan-induced footpad edema in rats (Edema Rate E% and Inhibition Rate I%)
Format: in vivo, Wistar Albino Rats
Details: sc, vs control group edema rate, read-out: percentage inhibition rate (I %)
Protocol: Wistar Albino Rats of 4 to 6 weeks old with weights of 100-150 g were used for the studies.
Weigh 30 mg of λ-carrageenan (Sigma Chemical) powder; add 3 mL of saline to make the 1% carrageenan solution.
Individually weigh 10 mg of each testing compound; add 10 mL of 1% CMC and shake to make the suspension.
In the present invention, Carrageenan was used to stimulate the inflammation on the rear left footpad of the rat. The inflammation on the left footpad of each rat was measured for rats with and without treatment. Treatment includes leflunomide analogs, dexamethasone, ibuprofen, and Malononitrilamide (MNA). Measurements of the inflamation at pre-determined time points were made.
The rats were weighed and divided into three groups: (1) Control Group, (2) Test Group, and (3) Comparison Group. For each compound, 5 rats were used and marked on the tails. Before injecting carrageenan, the volume of each left footpad was measured (V0). Each rat was injected in the back as follows:
(1) Control Group: 1% CMC for Control Group,
(2) Testing Group: testing compound (10 mg/kg each) in 1% CMC, and
(3) Comparison Group: dexamethasone (1.5 mg/kg in 1% CMC), ibuprofen 10 mg/kg in 1% CMC, MNA in 1% CMC.
One hour later, 0.05 mL of 1% carrageenan was injected onto the rear footpad of each rat to initiate the inflammation. Measure the volume of the rear left footpad (Vt) at 0.5, 1, 2, 3, 4, and 5 hours.
The Edema Rate (E%) and the Inhibition Rate (I%) are calculated as follows and the results of the in-vivo studies are summarized in Table 1 and Table 2. [formula]
V0=Volume (mL) of the rear left footpad before the injection of Carrageenan.
Vt=Volume (mL) of the rear left footpad at “t” time after the injection of Carrageenan
Ec=Edema Rate of the, Control Group
Et=Edema Rate of the Testing Group and Comparison Group

Cc1cc(C(=O)Nc2ccccc2)no1 [Compound 5a, N-(Phenyl)-3-carboxamidyl-5-methylisoxazole]
inhibition in vivo at 10 mg/kg (1 h, 1 hr): 62.5% | inhibition in vivo at 10 mg/kg (2 h, 2 hr): 74.9% | inhibition in vivo at 10 mg/kg (3 h, 3 hr): 78.8% | inhibition in vivo at 10 mg/kg (4 h, 4 hr): 78.4% | inhibition in vivo at 10 mg/kg (5 h, 5 hr): 44.5%

Cc1cc(C(=O)Nc2ccccc2Cl)no1 [Compound 5b]
inhibition in vivo at 10 mg/kg (1 h, 1 hr): 80.1% | inhibition in vivo at 10 mg/kg (2 h, 2 hr): 82.5% | inhibition in vivo at 10 mg/kg (3 h, 3 hr): 79.4% | inhibition in vivo at 10 mg/kg (4 h, 4 hr): 79% | inhibition in vivo at 10 mg/kg (5 h, 5 hr): 77.7%

Cc1cc(C(=O)Nc2cccc(Cl)c2)no1 [Compound 5c, N-(3-Chlorophenyl)-3-carboxamidyl-5-methylisoxazole]
inhibition in vivo at 10 mg/kg (1 h, 1 hr): 64.4% | inhibition in vivo at 10 mg/kg (2 h, 2 hr): 55.3% | inhibition in vivo at 10 mg/kg (3 h, 3 hr): 60.6% | inhibition in vivo at 10 mg/kg (4 h, 4 hr): 63.8% | inhibition in vivo at 10 mg/kg (5 h, 5 hr): 61.1%

Cc1cc(C(=O)Nc2ccc(Cl)cc2)no1 [Compound 5d, N-(4-Chlorophenyl)-3carboxamidyl-5-methyisoxazole]
inhibition in vivo at 10 mg/kg (1 h, 1 hr): 70.2% | inhibition in vivo at 10 mg/kg (2 h, 2 hr): 72.8% | inhibition in vivo at 10 mg/kg (3 h, 3 hr): 77.6% | inhibition in vivo at 10 mg/kg (4 h, 4 hr): 77.8% | inhibition in vivo at 10 mg/kg (5 h, 5 hr): 76%

Cc1cc(C(=O)Nc2cccc(C(F)(F)F)c2)no1 [Compound 5e, N-(3-Trifluoromethyl)-3-carboxamidyl-5-methylisoxazole]
inhibition in vivo at 10 mg/kg (1 h, 1 hr): 26% | inhibition in vivo at 10 mg/kg (2 h, 2 hr): 41.7% | inhibition in vivo at 10 mg/kg (3 h, 3 hr): 40.7% | inhibition in vivo at 10 mg/kg (4 h, 4 hr): 44% | inhibition in vivo at 10 mg/kg (5 h, 5 hr): 46.8%

Cc1cc(C(=O)Nc2ccc(C(F)(F)F)cc2)no1 [Compound 5f, N-(4-Trifluoromethylphenyl)3-carboxamidyl-5-methylisoxazole]
inhibition in vivo at 10 mg/kg (1 h, 1 hr): 46.2% | inhibition in vivo at 10 mg/kg (2 h, 2 hr): 53.8% | inhibition in vivo at 10 mg/kg (3 h, 3 hr): 54.6% | inhibition in vivo at 10 mg/kg (4 h, 4 hr): 58.4% | inhibition in vivo at 10 mg/kg (5 h, 5 hr): 58.3%

Cc1cc(C(=O)Nc2ccc(Cl)cc2Cl)no1 [Compound 5g, N-(2,4-Dichlorophenyl)-3carboxamidyl-5-methylisoxazole]
inhibition in vivo at 10 mg/kg (1 h, 1 hr): 79.3% | inhibition in vivo at 10 mg/kg (2 h, 2 hr): 83.1% | inhibition in vivo at 10 mg/kg (3 h, 3 hr): 77.4% | inhibition in vivo at 10 mg/kg (4 h, 4 hr): 79% | inhibition in vivo at 10 mg/kg (5 h, 5 hr): 78%

COc1ccc(NC(=O)c2cc(C)on2)cc1 [Compound 5h, N-(4-Methoxyphenyl)-3carboxamidyl-5-methylisoxazole]
inhibition in vivo at 10 mg/kg (1 h, 1 hr): 24% | inhibition in vivo at 10 mg/kg (2 h, 2 hr): 18.9% | inhibition in vivo at 10 mg/kg (3 h, 3 hr): 41.6% | inhibition in vivo at 10 mg/kg (4 h, 4 hr): 44.3% | inhibition in vivo at 10 mg/kg (5 h, 5 hr): 43.1%

COc1cc(NC(=O)c2cc(C)on2)cc(OC)c1OC [Compound 5i, N-(3,4,5-Trimethoxyphenyl)-3-carboxamidyl-5-methylisoxazole]
inhibition in vivo at 10 mg/kg (1 h, 1 hr): 6.7% | inhibition in vivo at 10 mg/kg (2 h, 2 hr): 34% | inhibition in vivo at 10 mg/kg (3 h, 3 hr): 39.1% | inhibition in vivo at 10 mg/kg (4 h, 4 hr): 42.7% | inhibition in vivo at 10 mg/kg (5 h, 5 hr): 42.5%

Cc1cc(C(=O)Nc2ccc(C(=O)O)cc2)no1 [Compound 5j, 4-[(5-Methylisoxazole-3-carbonyl)-amino]-benzoic acid]
inhibition in vivo at 10 mg/kg (1 h, 1 hr): 50.5% | inhibition in vivo at 10 mg/kg (2 h, 2 hr): 46.7% | inhibition in vivo at 10 mg/kg (3 h, 3 hr): 56.2% | inhibition in vivo at 10 mg/kg (4 h, 4 hr): 58.3% | inhibition in vivo at 10 mg/kg (5 h, 5 hr): 57.4%

Cc1cc(C(=O)Nc2ccc(F)cc2)no1 [Compound 5k, N-(4-Fluorophenyl)-3-carboxamidyl-5-methylisoxazole]
inhibition in vivo at 10 mg/kg (1 h, 1 hr): 46.2% | inhibition in vivo at 10 mg/kg (2 h, 2 hr): 17.5% | inhibition in vivo at 10 mg/kg (3 h, 3 hr): 38.7% | inhibition in vivo at 10 mg/kg (4 h, 4 hr): 43.5% | inhibition in vivo at 10 mg/kg (5 h, 5 hr): 43.7%

C[C@@H]1C[C@H]2[C@@H]3CCC4=CC(=O)C=C[C@]4(C)[C@@]3(F)[C@@H](O)C[C@]2(C)[C@@]1(O)C(=O)CO [Dexamethasone, reference compound]
inhibition in vivo at 1.5 mg/kg (1 h, 1 hr): 73.6% | inhibition in vivo at 1.5 mg/kg (2 h, 2 hr): 64.5% | inhibition in vivo at 1.5 mg/kg (3 h, 3 hr): 65.8% | inhibition in vivo at 1.5 mg/kg (4 h, 4 hr): 66.5% | inhibition in vivo at 1.5 mg/kg (5 h, 5 hr): 66.4%

CC(C)Cc1ccc(C(C)C(=O)O)cc1 (stereo not drawn) [Ibuprofen, reference compound]
inhibition in vivo at 10 mg/kg (1 h, 1 hr): 9.1% | inhibition in vivo at 20 mg/kg (1 h, 1 hr): 20.8% | inhibition in vivo at 30 mg/kg (1 h, 1 hr): 65.4% | inhibition in vivo at 10 mg/kg (2 h, 2 hr): 21.6% | inhibition in vivo at 20 mg/kg (2 h, 2 hr): 43.2% | inhibition in vivo at 30 mg/kg (2 h, 2 hr): 67.8% | inhibition in vivo at 10 mg/kg (3 h, 3 hr): 45.9% | inhibition in vivo at 20 mg/kg (3 h, 3 hr): 55.7% | inhibition in vivo at 30 mg/kg (3 h, 3 hr): 79.7% | inhibition in vivo at 10 mg/kg (4 h, 4 hr): 44.4% | inhibition in vivo at 20 mg/kg (4 h, 4 hr): 55.1% | inhibition in vivo at 30 mg/kg (4 h, 4 hr): 74.9% | inhibition in vivo at 10 mg/kg (5 h, 5 hr): 38% | inhibition in vivo at 20 mg/kg (5 h, 5 hr): 51.6% | inhibition in vivo at 30 mg/kg (5 h, 5 hr): 53%

Cc1oncc1C(=O)Nc1ccc(C(F)(F)F)cc1 [Leflunomide, N-(4-trifluoromethylphenyl)-4-carboxamidyl-5-methylisoxazole]
inhibition in vivo at 5 mg/kg (1 h, 1 hr): 3.8% | inhibition in vivo at 10 mg/kg (1 h, 1 hr): 28.4% | inhibition in vivo at 20 mg/kg (1 h, 1 hr): 45.7% | inhibition in vivo at 5 mg/kg (2 h, 2 hr): 19.5% | inhibition in vivo at 10 mg/kg (2 h, 2 hr): 34.3% | inhibition in vivo at 20 mg/kg (2 h, 2 hr): 50% | inhibition in vivo at 5 mg/kg (3 h, 3 hr): 41% | inhibition in vivo at 10 mg/kg (3 h, 3 hr): 55% | inhibition in vivo at 20 mg/kg (3 h, 3 hr): 60.4% | inhibition in vivo at 5 mg/kg (4 h, 4 hr): 38.6% | inhibition in vivo at 10 mg/kg (4 h, 4 hr): 47.8% | inhibition in vivo at 20 mg/kg (4 h, 4 hr): 60.3% | inhibition in vivo at 5 mg/kg (5 h, 5 hr): 38.3% | inhibition in vivo at 10 mg/kg (5 h, 5 hr): 46% | inhibition in vivo at 20 mg/kg (5 h, 5 hr): 57.4%
